Measurements taken from ChEMBL document CHEMBL1139451, “The discovery of ezetimibe: a view from outside the receptor” (2004).
Active and inactive are the calls of the source. No cut-off for these calls is given here.

What was measured:
[1] = test system: Cricetinae gen. sp.; assay: Compound was tested for the change in liver cholesterol (CE) levels in hamster; assay type: functional, Cricetulus griseus
[2] = test system: Cricetinae gen. sp.; assay: Compound was tested for the change in liver cholesterol (CE) levels in hamsters; assay type: functional, Cricetulus griseus
[3] = target: T1, Sterol O-acyltransferase 1 (Cricetulus griseus) (UniProt Q60457); assay: Compound was tested for the change in liver cholesteryl ester (CE) levels by the inhibition of ACAT in hamster at 50 mg/kg p.o.; NE=No effect; assay type: functional, organism-based; parameters: dose 50 mg/kg
T1 sequence (whole entry): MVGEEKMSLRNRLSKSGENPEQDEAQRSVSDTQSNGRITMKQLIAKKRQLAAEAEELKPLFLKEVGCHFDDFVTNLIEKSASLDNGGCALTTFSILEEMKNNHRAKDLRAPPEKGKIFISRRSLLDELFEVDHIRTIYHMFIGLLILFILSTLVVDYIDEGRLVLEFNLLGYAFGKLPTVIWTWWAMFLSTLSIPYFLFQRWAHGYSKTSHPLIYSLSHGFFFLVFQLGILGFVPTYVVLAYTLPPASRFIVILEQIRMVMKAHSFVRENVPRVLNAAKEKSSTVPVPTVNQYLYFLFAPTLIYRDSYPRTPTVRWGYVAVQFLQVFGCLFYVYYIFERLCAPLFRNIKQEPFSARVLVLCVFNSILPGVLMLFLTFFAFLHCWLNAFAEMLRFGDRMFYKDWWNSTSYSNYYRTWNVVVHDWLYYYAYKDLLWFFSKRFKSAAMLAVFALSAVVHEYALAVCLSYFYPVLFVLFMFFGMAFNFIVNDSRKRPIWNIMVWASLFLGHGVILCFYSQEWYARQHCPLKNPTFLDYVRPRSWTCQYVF

[4] = target: T1, Sterol O-acyltransferase 1 (Cricetulus griseus); assay: Compound was tested for the change in serum cholesterol (SC) levels by the inhibition of ACAT in hamster at 50 mg/kg p.o.; NE=No effect; assay type: functional, organism-based; parameters: dose 50 mg/kg
[5] = target: T1, Sterol O-acyltransferase 1 (Cricetulus griseus); assay: Compound was tested for the change in liver cholesteryl ester (CE) levels by the inhibition of ACAT in hamster at 50 mg/kg p.o.; assay type: functional, organism-based; parameters: dose 50 mg/kg
[6] = target: T1, Sterol O-acyltransferase 1 (Cricetulus griseus); assay: Compound was tested for the change in serum cholesterol (SC) levels by the inhibition of ACAT in hamster at 50 mg/kg p.o.; assay type: functional, organism-based; parameters: dose 50 mg/kg
[7] = species: Canis familiaris; assay: Compound was tested for the change in serum cholesterol (SC) levels in cholesterol fed dog; assay type: functional; settings: Canis lupus familiaris
[8] = species: Homo sapiens; assay: Compound was tested for the reduction in high density lipoprotein cholesterol; assay type: functional
[9] = species: Homo sapiens; assay: Compound was tested for the reduction in low density lipoprotein cholesterol; assay type: functional
[10] = species: Homo sapiens; assay: Compound was tested for the reduction in total cholesterol; assay type: functional
[11] = species: Homo sapiens; assay: Compound was tested for the reduction in triglycerides; assay type: functional
[12] = test system: Monkey; assay: Compound was tested for the change in serum cholesterol (SC) levels in cholesterol fed monkey; assay type: functional; settings: Cercopithecidae, in Primates
[13] = species: Rattus norvegicus; assay: Compound was tested for the change in serum cholesterol (SC) level in cholesterol fed rat; assay type: functional

CC(=O)c1ccc([C@@H]2[C@@H](CCC(=O)c3ccccc3)C(=O)N2c2ccc(C(C)=O)cc2)cc1
ED50 [1]: 1.9 mg/kg

O=Cc1ccc([C@@H]2[C@@H](CC[C@@H](O)c3ccccc3)C(=O)N2c2ccc(C=O)cc2)cc1
ED50 [1]: 5 mg/kg

O=Cc1ccc([C@@H]2[C@@H](CC[C@H](O)c3ccccc3)C(=O)N2c2ccc(C=O)cc2)cc1
ED50 [2]: 0.9 mg/kg

COc1ccc([C@@H]2[C@@H](/C=C/Cc3ccccc3)C(=O)N2c2ccc(OC)cc2)cc1
Change in cholesterol [3]: inactive
Change in cholesterol [4]: inactive

COc1ccc([C@@H]2[C@@H](/C=C\Cc3ccccc3)C(=O)N2c2ccc(OC)cc2)cc1
Change in cholesterol [5]: -73%
Change in cholesterol [6]: -20%

O=C1[C@H](CCCc2ccccc2)[C@@H](c2ccc(O)cc2)N1c1ccc(O)cc1
Change in cholesterol [5]: -78%

O=Cc1ccc([C@@H]2[C@@H](CCCc3ccc(O)cc3)C(=O)N2c2ccc(C=O)cc2)cc1
Change in cholesterol [5]: -78%

O=Cc1ccc([C@@H]2[C@@H](CCCc3ccccc3)C(=O)N2c2ccc(O)cc2)cc1
Change in cholesterol [5]: -68%

COc1ccc([C@@H]2N(c3ccccc3)C(=O)C23CCC(c2ccc(Cl)cc2)CC3)cc1 (stereo in doubt; 17) [listing 1 of 2 here]
ED50 [2]: 0.66 mg/kg

COc1ccc([C@@H]2N(c3ccccc3)C(=O)C23CCC(c2ccc(Cl)cc2)CC3)cc1 (stereo in doubt; 17) [listing 2 of 2 here]
Change in cholesterol [5]: -97%
Change in cholesterol [6]: -46%

COc1ccc([C@@H]2N(c3ccccc3)C(=O)C23CCC(c2ccc(Cl)cc2)CC3)cc1 (stereo in doubt; 18)
Change in cholesterol [5]: No effect
Change in cholesterol [6]: No effect

O=C1[C@H](CC[C@H](O)c2ccc(F)cc2)[C@@H](c2ccc(O)cc2)N1c1ccc(F)cc1 [EZETIMIBE]
ED50 [7]: 0.007 mg/kg
ED50 [1]: 0.04 mg/kg
Mean [8]: 1.3%
Mean [9]: -16.9%
Mean [10]: -12.5%
Mean [11]: -5.7%
ED50 [12]: 0.0005 mg/kg
ED50 [13]: 0.03 mg/kg
